In patent US6372297B1, “Wood preservative oxathiazines” (Uniroyal Chemical Company, Inc., priority 1993, dated 2002):

What was measured:
Penicillium islandicum = assay: Wood preservative efficacy against fungi, agar plate colony diameter; assay type: cell-based; design: key: 1 = 25%, 2 = 50%, 3 = 75%, 4 = 100% of untreated fungal growth
Procedure: The compounds shown in Table 1 were dissolved in 50% ethanol and then diluted with sterile water to give the required concentrations of 1 and 10 ppm in the test agar plates. Malt extract sugar (3%) was added aseptically and uniform distribution was obtained by shaking. Each plate was inoculated with a spore suspension or with a small piece of agar (1 mm) from the margin of an actively growing colony of the test fungus. The fungi employed are listed below. After incubation at 22° C. and 70% relative humidity during a period long enough to allow significant growth of untreated controls, the diameters of the fungus colonies were measured and scored using the following rating system:
1=25% of fungal growth compared to untreated
2=50% of fungal growth compared to untreated
3=75% of fungal growth compared to untreated
4=Growth equal to that of untreated
In these Tables, the lower numbers are the most preferred species.

Cladosporium resinae = assay: as above; assay type: cell-based
Procedure: (§1) Each plate was inoculated with a spore suspension or with a small piece of agar (1 mm) from the margin of an actively growing colony of the test fungus. The fungi employed are listed below. After incubation at 22° C. and 70% relative humidity during a period long enough to allow significant growth of untreated controls, the diameters of the fungus colonies were measured and scored using the following rating system: 0=free of fungal growth 1=25% of fungal growth compared to untreated 2=50% of fungal growth compared to untreated 3=75% of fungal growth compared to untreated 4=Growth equal to that of untreated The scores measured for wood preservation efficacy of the compounds of this invention are listed in Tables 6a and 6b. In these Tables, the lower numbers are the most preferred species. Cladosporium resinae (syn Hormonocanis resinae, Amorphotheca resinae)

Chaetomium globosum = assay: as above; assay type: cell-based
Procedure: as §1, with “Chaetomium globosum” for “Cladosporium resinae (syn Hormonocanis resinae, Amorphotheca resinae)”

Pseudomonas alcaligenes = assay: Wood preservative efficacy against bacteria and yeasts, tryptose agar plates; assay type: cell-based; design: key: 0 = growth equal to control, 1 = inhibition, 2 = no growth; conditions: 100 ppm in tryptose agar
Procedure: (§2) Compositions were prepared by dissolving the compounds shown in Table 1 in 50% ethanol and further diluting with sterile distilled water. […] After cooling, the medium was inoculated with the bacteria listed below. After sufficient growth of the untreated cultures, the compounds were evaluated using the following rating system: 0=growth equal to control 1=inhibition of growth by the compound 2=no growth under the influence of the compound. In this Table, the higher numbers are the most preferred species. Pseudomonas alcaligenes (gram neg)

Flavobacterium sp. = assay: as above; assay type: cell-based; design: key: 0 = growth equal to control, 1 = growth inhibited, 2 = no growth
Procedure: as §2, with “Flavobacterium sp.” for “Pseudomonas alcaligenes”

Enterobacter aerogenes = assay: as above; assay type: cell-based; design: key: 0 = growth equal to control, 1 = inhibition, 2 = no growth
Procedure: as §2, with “Enterobacter aerogenes” for “Pseudomonas alcaligenes”

Coriolus versicolor = assay: Activity against wood-rotting fungi, weight loss of impregnated wood blocks; conditions: eight weeks at 22° C. and 70% relative humidity
Procedure: (§3) Sapwood blocks (50×20×6 mm) of Scots pine (Pinus sylvestris) and beech (Fagus sylvatica) were oven-dried at 104° C. The blocks were cooled, weighed, and impregnated with the test compound, by a vacuum treatment. Each concentration of the test compounds was applied to 7 replicates. By reweighing after each treatment, the uptake of active ingredient was calculated. Badly treated wood was discarded. For fixation of the active compound, the treated blocks were kept in a closed container for two weeks. The container was opened and the wood was dried for two more weeks. The test blocks were sterilized by gamma-irradiation (1.2 Mrad). Each treated block was placed on a mesh in an inoculated Petri dishes of malt agar, with an untreated (control) block. All the blocks were exposed to fungal attack for eight weeks at 22° C. and 70% relative humidity. At the end of the incubation period, the blocks were freed from adhering mycelium, oven dried at 104° C., allowed to cool, and weighed. The percentage weight loss of each block was calculated. Invalid results, due to waterlogging or insufficient moisture content, were not taken into account. The average weight loss of the treated blocks compared to the control blocks appears in Table 8.

Coniophora puteana = assay: as above; conditions: eight weeks at 22° C. and 70% relative humidity
Procedure: as §3

Mucor sp. = assay: Wood preservative efficacy against fungi, agar plate colony diameter; assay type: cell-based
Procedure: as §1, with “Mucor sp.” for “Cladosporium resinae (syn Hormonocanis resinae, Amorphotheca resinae)”

[1] = higher treatment level, uptake 1136-1222 g.a.i./m3, control blocks lost 26-44%
[2] = lower treatment level, uptake 450-496 g.a.i./m3, control blocks lost 29-38%
[3] = higher treatment level, uptake 1271-1534 g.a.i./m3, control blocks lost 20-37%
[4] = lower treatment level, uptake 526-582 g.a.i./m3, control blocks lost 17-42%

## C[S+]1CCON=C1c1ccc(Cl)cc1 (stereo not drawn) [Compound 1]
Penicillium islandicum; Test dosage 10 ppm, Table 6A
  Score of fungicidal activity, P. ISLANDICUM: 0
Cladosporium resinae; Test dosage 10 ppm, Table 6A
  Score of fungicidal activity, CL RESINAE: 2 (50% of growth compared to untreated control)
Chaetomium globosum; Test dosage 10 ppm, Table 6A
  Score of fungicidal activity, C. GLOBOSUM: 0
Pseudomonas alcaligenes
  Score of bactericidal activity, P. alcalgenes: 1
Flavobacterium sp.; 100 ppm in tryptose agar
  Score of bactericidal activity, Flavobacter: 2
Enterobacter aerogenes; 100 ppm in tryptose agar
  Score of bactericidal activity, E. aerogenes: 0

## [O-][S+]1CCON=C1c1ccc(Cl)c(Cl)c1 (stereo not drawn) [Compound 4]
Penicillium islandicum; Test dosage 10 ppm, Table 6A
  Score of fungicidal activity, P. ISLANDICUM: 0
Cladosporium resinae; Test dosage 10 ppm, Table 6A
  Score of fungicidal activity, CL RESINAE: 0
Chaetomium globosum; Test dosage 10 ppm, Table 6A
  Score of fungicidal activity, C. GLOBOSUM: 0
Pseudomonas alcaligenes
  Score of bactericidal activity, P. alcalgenes: 1
Flavobacterium sp.; 100 ppm in tryptose agar
  Score of bactericidal activity, Flavobacter: 2
Enterobacter aerogenes; 100 ppm in tryptose agar
  Score of bactericidal activity, E. aerogenes: 0
Coriolus versicolor; [1]
  % weight loss, treated blocks (Coriolus): 35%
Coriolus versicolor; [2]
  % weight loss, treated blocks (Coriolus): 35%
Coniophora puteana; [3]
  % weight loss, treated blocks (Coniophora): 0.3%
Coniophora puteana; [4]
  % weight loss, treated blocks (Coniophora): 0.3%

## [O-][S+]1CCON=C1c1cccs1 (stereo not drawn) [Compound 8]
Penicillium islandicum; Test dosage 10 ppm, Table 6A
  Score of fungicidal activity, P. ISLANDICUM: 0
Cladosporium resinae; Test dosage 10 ppm, Table 6A
  Score of fungicidal activity, CL RESINAE: 2 (50% of growth compared to untreated control)
Chaetomium globosum; Test dosage 10 ppm, Table 6A
  Score of fungicidal activity, C. GLOBOSUM: 2 (50% of growth compared to untreated control)
Pseudomonas alcaligenes
  Score of bactericidal activity, P. alcalgenes: 2
Flavobacterium sp.; 100 ppm in tryptose agar
  Score of bactericidal activity, Flavobacter: 2
Enterobacter aerogenes; 100 ppm in tryptose agar
  Score of bactericidal activity, E. aerogenes: 2
Coriolus versicolor; [1]
  % weight loss, treated blocks (Coriolus): 3.5%
Coriolus versicolor; [2]
  % weight loss, treated blocks (Coriolus): 24%
Coniophora puteana; [3]
  % weight loss, treated blocks (Coniophora): 0.7%
Coniophora puteana; [4]
  % weight loss, treated blocks (Coniophora): 0.9%

## CC(=O)c1ccc(C2=NOCC[S+]2[O-])cc1 (stereo not drawn) [Compound 14]
Penicillium islandicum; Test dosage 10 ppm, Table 6A
  Score of fungicidal activity, P. ISLANDICUM: 4
Cladosporium resinae; Test dosage 10 ppm, Table 6A
  Score of fungicidal activity, CL RESINAE: 0
Chaetomium globosum; Test dosage 10 ppm, Table 6A
  Score of fungicidal activity, C. GLOBOSUM: 4
Pseudomonas alcaligenes
  Score of bactericidal activity, P. alcalgenes: 1
Flavobacterium sp.; 100 ppm in tryptose agar
  Score of bactericidal activity, Flavobacter: 2
Enterobacter aerogenes; 100 ppm in tryptose agar
  Score of bactericidal activity, E. aerogenes: 0
Mucor sp.; Test dosage 10 ppm, Table 6A
  Score of fungicidal activity, MUCOR SP: 1 (25% of growth compared to untreated control)

## C[S+]1CCON=C1c1cc(Cl)cc(Cl)c1 (stereo not drawn) [Compound 19]
Penicillium islandicum; 10 ppm, Table 6B
  Score of fungicidal activity, P. ISLANDICUM: 0
Cladosporium resinae; 10 ppm, Table 6B
  Score of fungicidal activity, CL RESINAE: 0
Chaetomium globosum; 10 ppm, Table 6B
  Score of fungicidal activity, C. GLOBOSUM: 0
Pseudomonas alcaligenes
  Score of bactericidal activity, P. alcalgenes: 0
Flavobacterium sp.; 10 ppm in tryptose agar
  Score of bactericidal activity, Flavobacter: 0
Flavobacterium sp.; 100 ppm in tryptose agar
  Score of bactericidal activity, Flavobacter: 2
Enterobacter aerogenes; 10 ppm in tryptose agar
  Score of bactericidal activity, E. aerogenes: 0
Enterobacter aerogenes; 100 ppm in tryptose agar
  Score of bactericidal activity, E. aerogenes: 0
Coriolus versicolor; [1]
  % weight loss, treated blocks (Coriolus): 87%
Coriolus versicolor; [2]
  % weight loss, treated blocks (Coriolus): 35%
Coniophora puteana; [3]
  % weight loss, treated blocks (Coniophora): −0.3%
Coniophora puteana; [4]
  % weight loss, treated blocks (Coniophora): 0.9%
Mucor sp.; 100 ppm, Table 6B
  Score of fungicidal activity, MUCOR SP: 2 (50% of growth compared to untreated control)

## CCOC(=O)c1ccc(C2=NOCC[S+]2[O-])cc1 (stereo not drawn) [Compound 22]
Penicillium islandicum; 10 ppm, Table 6B
  Score of fungicidal activity, P. ISLANDICUM: 2 (50% of growth compared to untreated control)
Cladosporium resinae; 10 ppm, Table 6B
  Score of fungicidal activity, CL RESINAE: 4
Chaetomium globosum; 10 ppm, Table 6B
  Score of fungicidal activity, C. GLOBOSUM: 4
Pseudomonas alcaligenes
  Score of bactericidal activity, P. alcalgenes: 1
Flavobacterium sp.; 10 ppm in tryptose agar
  Score of bactericidal activity, Flavobacter: 1
Flavobacterium sp.; 100 ppm in tryptose agar
  Score of bactericidal activity, Flavobacter: 2
Enterobacter aerogenes; 10 ppm in tryptose agar
  Score of bactericidal activity, E. aerogenes: 0
Enterobacter aerogenes; 100 ppm in tryptose agar
  Score of bactericidal activity, E. aerogenes: 0
Mucor sp.; 100 ppm, Table 6B
  Score of fungicidal activity, MUCOR SP: 0

## C[S+]1CCON=C1c1ccc(C(F)(F)F)cc1 (stereo not drawn) [Compound 25]
Penicillium islandicum; 10 ppm, Table 6B
  Score of fungicidal activity, P. ISLANDICUM: 1 (25% of growth compared to untreated control)
Cladosporium resinae; 10 ppm, Table 6B
  Score of fungicidal activity, CL RESINAE: 0
Chaetomium globosum; 10 ppm, Table 6B
  Score of fungicidal activity, C. GLOBOSUM: 3 (75% of growth compared to untreated control)
Pseudomonas alcaligenes
  Score of bactericidal activity, P. alcalgenes: 1
Flavobacterium sp.; 10 ppm in tryptose agar
  Score of bactericidal activity, Flavobacter: 1
Flavobacterium sp.; 100 ppm in tryptose agar
  Score of bactericidal activity, Flavobacter: 2
Enterobacter aerogenes; 10 ppm in tryptose agar
  Score of bactericidal activity, E. aerogenes: 0
Enterobacter aerogenes; 100 ppm in tryptose agar
  Score of bactericidal activity, E. aerogenes: 0
Coriolus versicolor; [1]
  % weight loss, treated blocks (Coriolus): 21%
Coriolus versicolor; [2]
  % weight loss, treated blocks (Coriolus): 37%
Coniophora puteana; [3]
  % weight loss, treated blocks (Coniophora): −0.8%
Coniophora puteana; [4]
  % weight loss, treated blocks (Coniophora): −0.7%
Mucor sp.; 10 ppm, Table 6B
  Score of fungicidal activity, MUCOR SP: 3 (75% of growth compared to untreated control)
Mucor sp.; 100 ppm, Table 6B
  Score of fungicidal activity, MUCOR SP: 0

## COC(=O)c1cccc(C2=NOCC[S+]2[O-])c1 (stereo not drawn) [Compound 26]
Penicillium islandicum; 10 ppm, Table 6B
  Score of fungicidal activity, P. ISLANDICUM: 4
Cladosporium resinae; 10 ppm, Table 6B
  Score of fungicidal activity, CL RESINAE: 4
Chaetomium globosum; 10 ppm, Table 6B
  Score of fungicidal activity, C. GLOBOSUM: 4
Pseudomonas alcaligenes
  Score of bactericidal activity, P. alcalgenes: 0
Flavobacterium sp.; 10 ppm in tryptose agar
  Score of bactericidal activity, Flavobacter: 0
Flavobacterium sp.; 100 ppm in tryptose agar
  Score of bactericidal activity, Flavobacter: 2
Enterobacter aerogenes; 10 ppm in tryptose agar
  Score of bactericidal activity, E. aerogenes: 0
Enterobacter aerogenes; 100 ppm in tryptose agar
  Score of bactericidal activity, E. aerogenes: 0
Mucor sp.; 100 ppm, Table 6B
  Score of fungicidal activity, MUCOR SP: 2 (50% of growth compared to untreated control)

## CCOc1ccc(C2=NOCC[S+]2C)cc1 (stereo not drawn) [Compound 28]
Penicillium islandicum; 10 ppm, Table 6B
  Score of fungicidal activity, P. ISLANDICUM: 4
Cladosporium resinae; 10 ppm, Table 6B
  Score of fungicidal activity, CL RESINAE: 4
Chaetomium globosum; 10 ppm, Table 6B
  Score of fungicidal activity, C. GLOBOSUM: 4
Pseudomonas alcaligenes
  Score of bactericidal activity, P. alcalgenes: 0
Flavobacterium sp.; 10 ppm in tryptose agar
  Score of bactericidal activity, Flavobacter: 0
Flavobacterium sp.; 100 ppm in tryptose agar
  Score of bactericidal activity, Flavobacter: 2
Enterobacter aerogenes; 10 ppm in tryptose agar
  Score of bactericidal activity, E. aerogenes: 0
Enterobacter aerogenes; 100 ppm in tryptose agar
  Score of bactericidal activity, E. aerogenes: 0
Mucor sp.; 100 ppm, Table 6B
  Score of fungicidal activity, MUCOR SP: 1 (25% of growth compared to untreated control)
